{"source": "patent US20240123080A1", "about": "“CYTOTOXIC COMPOUNDS AND CONJUGATES THEREOF” (Seagen Inc., priority 2022, published 2024)", "test_in_all_cases": "In vitro cytotoxicity, cell proliferation assay (CellTiter-Glo, 96 h)", "format_in_all_cases": "cell-based", "key": {"Karpas299 NHL": {"system": "Karpas299 NHL", "settings": "Homo sapiens, KARPAS-299, auristatin free drug", "procedure": "(§1) The cytotoxicity of free drugs and drug conjugates were measured by a cell proliferation assay employing the protocol described in Promega Corp. Technical Bulletin TB288; and Mendoza et al., 2002, Cancer Res. 62:5485-5488), the methods of which are specifically incorporated by reference herein. Briefly, an aliquot of 40 μl of cell culture containing about 400 cells in medium is deposited in each well of a 384-well, opaque-walled plate. A 10 μL aliquot of free drug or drug conjugate is added to the experimental wells and incubated for 96 h and are then equilibrated to room temperature for approximately 30 minutes whereupon a volume of CellTiter-Glo™ reagent equal to the volume of cell culture medium present in each well is added. The contents are mixed for 2 minutes on an orbital shaker to induce cell lysis and the plate is incubated at room temperature for 10 minutes to stabilize the luminescence signal for recordation."}, "DEL ALCL": {"system": "DEL ALCL", "settings": "auristatin free drug", "procedure": "as §1"}, "L540cy HL": {"system": "L540cy HL", "settings": "auristatin free drug", "procedure": "as §1"}}, "note": "pIC50: −log10 of the molar value. *1 amine or outer side, *2 acyl side, *3 side chain or, on linkers, in order; H or OH if unused. Where a SMILES comes first, the peptide text is derived from it. [ ]: non-standard residue; d: D form. The star is where a group is joined. Dolaproine = CO[C@@H]([C@@H]1CCCN1)[C@@H](C)C(=O)O; Dil = CC[C@H](C)[C@H](NC)[C@@H](CC(=O)O)OC; X9 = CCN([C@@H](CO)C(=O)[*:2])[*:1]; X1 = C[C@@H](N*)[C@@H](O)c1ccccc1; Phe(ol) = N[C@H](CO)Cc1ccccc1; X6 = CN(C)[C@@H](CCO)C(=O)*; X8 = CN1C(=O)OC[C@H]1C(=O)*; NMeS = CN[C@@H](CO)C(=O)O; hSer = N[C@@H](CCO)C(=O)O"}
{"smiles": "CC[C@H](C)[C@@H]([C@@H](CC(=O)N1CCC[C@H]1[C@H](OC)[C@@H](C)C(=O)N[C@@H](Cc1ccccc1)C(=O)O)OC)N(C)C(=O)[C@@H](NC(=O)[C@H](CO)NC)C(C)C", "note": "[Comparative Example A, reference compound] (H-[NMeS]V[Dil][Dolaproine]F-OH)", "values": [{"measurement": "pIC50", "setting": "Karpas299 NHL", "result": 6.60}, {"measurement": "pIC50", "setting": "DEL ALCL", "result": 6.68}, {"measurement": "pIC50", "setting": "L540cy HL", "result": "< 6.00"}]}
{"smiles": "CC[C@H](C)[C@@H]([C@@H](CC(=O)N1CCC[C@H]1[C@H](OC)[C@@H](C)C(=O)N[C@@H](Cc1ccccc1)C(=O)O)OC)N(C)C(=O)[C@@H](NC(=O)[C@@H]1COC(=O)N1C)C(C)C", "note": "[Comparative Example C, reference compound] (X8-V[Dil][Dolaproine]F-OH)", "values": [{"measurement": "pIC50", "setting": "Karpas299 NHL", "result": 6.66}, {"measurement": "pIC50", "setting": "DEL ALCL", "result": 6.47}, {"measurement": "pIC50", "setting": "L540cy HL", "result": 6.55}]}
{"smiles": "CC[C@H](C)[C@@H]([C@@H](CC(=O)N1CCC[C@H]1[C@H](OC)[C@@H](C)C(=O)N[C@H](CO)Cc1ccccc1)OC)N(C)C(=O)[C@@H](NC(=O)[C@H](CCO)N(C)C)C(C)C", "note": "[Example 9] (X6-V[Dil][Dolaproine][Phe(ol)])", "values": [{"measurement": "pIC50", "setting": "Karpas299 NHL", "result": 9.05}, {"measurement": "pIC50", "setting": "DEL ALCL", "result": 9.10}, {"measurement": "pIC50", "setting": "L540cy HL", "result": 8.40}]}
{"smiles": "CC[C@H](C)[C@@H]([C@@H](CC(=O)N1CCC[C@H]1[C@H](OC)[C@@H](C)C(=O)N[C@H](C)[C@@H](O)c1ccccc1)OC)N(C)C(=O)[C@@H](NC(=O)[C@H]([C@@H](C)O)N(C)C)C(C)C", "note": "[Example 10]", "values": [{"measurement": "pIC50", "setting": "Karpas299 NHL", "result": 9.30}, {"measurement": "pIC50", "setting": "DEL ALCL", "result": 9.40}, {"measurement": "pIC50", "setting": "L540cy HL", "result": 8.52}]}
{"smiles": "CC[C@H](C)[C@@H]([C@@H](CC(=O)N1CCC[C@H]1[C@H](OC)[C@@H](C)C(=O)N[C@H](C)[C@@H](O)c1ccccc1)OC)N(C)C(=O)[C@@H](NC(=O)[C@@H](CO)N(C)C)C(C)C", "note": "[Example 11]", "values": [{"measurement": "pIC50", "setting": "Karpas299 NHL", "result": 9.00}, {"measurement": "pIC50", "setting": "DEL ALCL", "result": 9.00}, {"measurement": "pIC50", "setting": "L540cy HL", "result": 8.22}]}
{"smiles": "CCN[C@@H](CO)C(=O)N[C@H](C(=O)N(C)[C@@H]([C@@H](C)CC)[C@@H](CC(=O)N1CCC[C@H]1[C@H](OC)[C@@H](C)C(=O)N[C@H](CO)Cc1ccccc1)OC)C(C)C", "note": "[Example 15] (H-[X9]V[Dil][Dolaproine][Phe(ol)])", "values": [{"measurement": "pIC50", "setting": "Karpas299 NHL", "result": 8.64}, {"measurement": "pIC50", "setting": "DEL ALCL", "result": 9.15}, {"measurement": "pIC50", "setting": "L540cy HL", "result": 8.41}]}
{"smiles": "CC[C@H](C)[C@@H]([C@@H](CC(=O)N1CCC[C@H]1[C@H](OC)[C@@H](C)C(=O)N[C@H](CO)Cc1ccccc1)OC)N(C)C(=O)[C@@H](NC(=O)C[C@@H](NC)[C@@H](C)O)C(C)C", "note": "[Example 22]", "values": [{"measurement": "pIC50", "setting": "Karpas299 NHL", "result": 7.89}, {"measurement": "pIC50", "setting": "DEL ALCL", "result": 8.24}, {"measurement": "pIC50", "setting": "L540cy HL", "result": 7.80}]}
{"smiles": "CC[C@H](C)[C@@H]([C@@H](CC(=O)N1CCC[C@H]1[C@H](OC)[C@@H](C)C(=O)N[C@H](CO)Cc1ccccc1)OC)N(C)C(=O)[C@@H](NC(=O)[C@@H](N)CO)C(C)C", "note": "[Example 23] (H-SV[Dil][Dolaproine][Phe(ol)])", "values": [{"measurement": "pIC50", "setting": "Karpas299 NHL", "result": 7.18}, {"measurement": "pIC50", "setting": "DEL ALCL", "result": 7.77}, {"measurement": "pIC50", "setting": "L540cy HL", "result": 6.18}]}
{"smiles": "CC[C@H](C)[C@@H]([C@@H](CC(=O)N1CCC[C@H]1[C@H](OC)[C@@H](C)C(=O)N[C@H](CO)Cc1ccccc1)OC)N(C)C(=O)[C@@H](NC(=O)[C@@H](N)CCO)C(C)C", "note": "[Example 24] (H-[hSer]V[Dil][Dolaproine][Phe(ol)])", "values": [{"measurement": "pIC50", "setting": "Karpas299 NHL", "result": 7.37}, {"measurement": "pIC50", "setting": "DEL ALCL", "result": 7.89}, {"measurement": "pIC50", "setting": "L540cy HL", "result": 6.21}]}
{"smiles": "CC[C@H](C)[C@@H]([C@@H](CC(=O)N1CCC[C@H]1[C@H](OC)[C@@H](C)C(=O)N[C@H](CO)Cc1ccccc1)OC)N(C)C(=O)[C@@H](NC(=O)[C@@H](N)[C@@H](C)O)C(C)C", "note": "[Example 25] (H-TV[Dil][Dolaproine][Phe(ol)])", "values": [{"measurement": "pIC50", "setting": "Karpas299 NHL", "result": 7.21}, {"measurement": "pIC50", "setting": "DEL ALCL", "result": 7.72}, {"measurement": "pIC50", "setting": "L540cy HL", "result": 6.34}]}
{"smiles": "CC[C@H](C)[C@@H]([C@@H](CC(=O)N1CCC[C@H]1[C@H](OC)[C@@H](C)C(=O)N[C@H](C)[C@@H](O)c1ccccc1)OC)N(C)C(=O)[C@@H](NC(=O)[C@H](N)CO)C(C)C", "note": "[Example 26] (H-[dS]V[Dil][Dolaproine]-X1)", "values": [{"measurement": "pIC50", "setting": "Karpas299 NHL", "result": 8.30}, {"measurement": "pIC50", "setting": "DEL ALCL", "result": 8.38}, {"measurement": "pIC50", "setting": "L540cy HL", "result": 7.70}]}
{"smiles": "CC[C@H](C)[C@@H]([C@@H](CC(=O)N1CCC[C@H]1[C@H](OC)[C@@H](C)C(=O)N[C@H](C)[C@@H](O)c1ccccc1)OC)N(C)C(=O)[C@@H](NC(=O)[C@H](N)[C@H](C)O)C(C)C", "note": "[Example 27] (H-[dT]V[Dil][Dolaproine]-X1)", "values": [{"measurement": "pIC50", "setting": "Karpas299 NHL", "result": 8.64}, {"measurement": "pIC50", "setting": "DEL ALCL", "result": 8.72}, {"measurement": "pIC50", "setting": "L540cy HL", "result": 7.89}]}
